Results: the supplement of paper PMC10307832

Columns and labels:
Test in all cases: relative viability (nuclei count vs DMSO), 5 days (fraction); higher = more cells survive
BEN = system: BEN
How it was run: (§1)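 Lung cancer cell lines in 1536-well plates were dosed by pin tool the day after seeding, either with one drug alone or with a fixed anchor-drug dose plus five library-drug doses (not always all listed) in √10 steps. After 5 days, cells were fixed and their nuclei stained in one step (final 0.05% Triton X-100, 1% formaldehyde, 1 ug/ml Hoechst), then counted on 4× images. Relative viability is the nuclei count in treated wells divided by that in vehicle wells. Values are medians of duplicate plates.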

NCI-H1915 = system: NCI-H1915
How it was run: as §1

CAL-12T = system: CAL-12T
How it was run: as §1

NCI-H2126 = system: NCI-H2126
How it was run: as §1

NCI-H1793 = system: NCI-H1793
How it was run: as §1

NCI-H1944 = system: NCI-H1944
How it was run: as §1

LOU-NH91 = system: LOU-NH91
How it was run: as §1

NCI-H838 = system: NCI-H838
How it was run: as §1

SW 1573 = system: SW 1573
How it was run: as §1

HCC-78 = system: HCC-78
How it was run: as §1

NCI-H1651 = system: NCI-H1651
How it was run: as §1

HOP-62 = system: HOP-62
How it was run: as §1

NCI-H1395 = system: NCI-H1395
How it was run: as §1

NCI-H3122 = system: NCI-H3122
How it was run: as §1

201T = system: 201T
How it was run: as §1

NCI-H1355 = system: NCI-H1355
How it was run: as §1

NCI-H650 = system: NCI-H650
How it was run: as §1

NCI-H2347 = system: NCI-H2347
How it was run: as §1

SK-LU-1 = system: SK-LU-1
How it was run: as §1

LCLC-97TM1 = system: LCLC-97TM1
How it was run: as §1

NCI-H322M = system: NCI-H322M
How it was run: as §1

NCI-H441 = system: NCI-H441
How it was run: as §1

Cc1csc(=NC2CCCCC2)n1/N=C/c1ccc(O)c(O)c1O [MIM1] + Cc1cc(Nc2cc(N3CCN(C)CC3)nc(Sc3ccc(NC(=O)C4CC4)cc3)n2)n[nH]1 [Tozasertib] (partner 0.1 µM)
relative viability (BEN; first compound 0.2 µM): 0.549 | relative viability (BEN; first compound 0.6325 µM): 0.438 | relative viability (BEN; first compound 2 µM): 0.498 | relative viability (BEN; first compound 6.325 µM): 0.482 | relative viability (BEN; first compound 20 µM): 0.346 | relative viability (NCI-H1915; first compound 0.2 µM): 0.499 | relative viability (NCI-H1915; first compound 0.6325 µM): 0.403 | relative viability (NCI-H1915; first compound 2 µM): 0.337 | relative viability (NCI-H1915; first compound 6.325 µM): 0.305 | relative viability (NCI-H1915; first compound 20 µM): 0.182 | relative viability (CAL-12T; first compound 0.2 µM): 0.244 | relative viability (CAL-12T; first compound 0.6325 µM): 0.254 | relative viability (CAL-12T; first compound 2 µM): 0.303 | relative viability (CAL-12T; first compound 6.325 µM): 0.206 | relative viability (CAL-12T; first compound 20 µM): 0.204 | relative viability (NCI-H2126; first compound 0.2 µM): 0.831 | relative viability (NCI-H2126; first compound 0.6325 µM): 0.832 | relative viability (NCI-H2126; first compound 2 µM): 0.846 | relative viability (NCI-H2126; first compound 6.325 µM): 0.738 | relative viability (NCI-H2126; first compound 20 µM): 0.403 | relative viability (NCI-H1793; first compound 0.2 µM): 0.405 | relative viability (NCI-H1793; first compound 2 µM): 0.435 | relative viability (NCI-H1793; first compound 6.325 µM): 0.298 | relative viability (NCI-H1793; first compound 20 µM): 0.34 | relative viability (NCI-H1944; first compound 0.2 µM): 0.226 | relative viability (NCI-H1944; first compound 0.6325 µM): 0.288 | relative viability (NCI-H1944; first compound 2 µM): 0.235 | relative viability (NCI-H1944; first compound 6.325 µM): 0.231 | relative viability (NCI-H1944; first compound 20 µM): 0.143 | relative viability (LOU-NH91; first compound 0.2 µM): 0.65 | relative viability (LOU-NH91; first compound 0.6325 µM): 0.657 | relative viability (LOU-NH91; first compound 2 µM): 0.51 | relative viability (LOU-NH91; first compound 6.325 µM): 0.581 | relative viability (LOU-NH91; first compound 20 µM): 0.225 | relative viability (NCI-H838; first compound 0.2 µM): 0.292 | relative viability (NCI-H838; first compound 0.6325 µM): 0.307 | relative viability (NCI-H838; first compound 2 µM): 0.249 | relative viability (NCI-H838; first compound 6.325 µM): 0.236 | relative viability (NCI-H838; first compound 20 µM): 0.236 | relative viability (SW 1573; first compound 0.2 µM): 0.21 | relative viability (SW 1573; first compound 0.6325 µM): 0.197 | relative viability (SW 1573; first compound 2 µM): 0.257 | relative viability (SW 1573; first compound 6.325 µM): 0.127 | relative viability (SW 1573; first compound 20 µM): 0.128 | relative viability (HCC-78; first compound 0.2 µM): 0.461 | relative viability (HCC-78; first compound 0.6325 µM): 0.288 | relative viability (HCC-78; first compound 2 µM): 0.454 | relative viability (HCC-78; first compound 6.325 µM): 0.39 | relative viability (HCC-78; first compound 20 µM): 0.337 | relative viability (NCI-H1651; first compound 0.2 µM): 0.601 | relative viability (NCI-H1651; first compound 0.6325 µM): 0.689 | relative viability (NCI-H1651; first compound 2 µM): 0.565 | relative viability (NCI-H1651; first compound 6.325 µM): 0.607 | relative viability (NCI-H1651; first compound 20 µM): 0.503 | relative viability (HOP-62; first compound 0.2 µM): 0.38 | relative viability (HOP-62; first compound 0.6325 µM): 0.378 | relative viability (HOP-62; first compound 2 µM): 0.298 | relative viability (HOP-62; first compound 6.325 µM): 0.335 | relative viability (HOP-62; first compound 20 µM): 0.184 | relative viability (NCI-H1395; first compound 0.2 µM): 0.742 | relative viability (NCI-H1395; first compound 0.6325 µM): 0.791 | relative viability (NCI-H1395; first compound 2 µM): 0.784 | relative viability (NCI-H1395; first compound 6.325 µM): 0.68 | relative viability (NCI-H1395; first compound 20 µM): 0.374 | relative viability (NCI-H3122; first compound 0.2 µM): 0.446 | relative viability (NCI-H3122; first compound 0.6325 µM): 0.464 | relative viability (NCI-H3122; first compound 2 µM): 0.366 | relative viability (NCI-H3122; first compound 6.325 µM): 0.155 | relative viability (NCI-H3122; first compound 20 µM): 0.0965 | relative viability (201T; first compound 0.2 µM): 0.956 | relative viability (201T; first compound 0.6325 µM): 1 | relative viability (201T; first compound 2 µM): 0.896 | relative viability (201T; first compound 6.325 µM): 0.504 | relative viability (201T; first compound 20 µM): 0.377 | relative viability (NCI-H1355; first compound 0.2 µM): 0.588 | relative viability (NCI-H1355; first compound 0.6325 µM): 0.557 | relative viability (NCI-H1355; first compound 2 µM): 0.519 | relative viability (NCI-H1355; first compound 6.325 µM): 0.464 | relative viability (NCI-H1355; first compound 20 µM): 0.3 | relative viability (NCI-H650; first compound 0.2 µM): 0.774 | relative viability (NCI-H650; first compound 0.6325 µM): 0.711 | relative viability (NCI-H650; first compound 2 µM): 0.748 | relative viability (NCI-H650; first compound 6.325 µM): 0.69 | relative viability (NCI-H650; first compound 20 µM): 0.244 | relative viability (NCI-H2347; first compound 0.2 µM): 0.478 | relative viability (NCI-H2347; first compound 0.6325 µM): 0.51 | relative viability (NCI-H2347; first compound 2 µM): 0.497 | relative viability (NCI-H2347; first compound 6.325 µM): 0.473 | relative viability (NCI-H2347; first compound 20 µM): 0.369 | relative viability (SK-LU-1; first compound 0.2 µM): 0.329 | relative viability (SK-LU-1; first compound 0.6325 µM): 0.374 | relative viability (SK-LU-1; first compound 2 µM): 0.393 | relative viability (SK-LU-1; first compound 6.325 µM): 0.273 | relative viability (SK-LU-1; first compound 20 µM): 0.283 | relative viability (LCLC-97TM1; first compound 0.2 µM): 0.285 | relative viability (LCLC-97TM1; first compound 0.6325 µM): 0.237 | relative viability (LCLC-97TM1; first compound 2 µM): 0.292 | relative viability (LCLC-97TM1; first compound 6.325 µM): 0.192 | relative viability (LCLC-97TM1; first compound 20 µM): 0.109 | relative viability (NCI-H322M; first compound 0.2 µM): 0.497 | relative viability (NCI-H322M; first compound 0.6325 µM): 0.456 | relative viability (NCI-H322M; first compound 2 µM): 0.513 | relative viability (NCI-H322M; first compound 6.325 µM): 0.447 | relative viability (NCI-H322M; first compound 20 µM): 0.26 | relative viability (NCI-H441; first compound 0.2 µM): 0.675 | relative viability (NCI-H441; first compound 2 µM): 0.599 | relative viability (NCI-H441; first compound 6.325 µM): 0.376 | relative viability (NCI-H441; first compound 20 µM): 0.312
